Paper PMC7904550, “Application of grouping and read-across for the evaluation of parabens of different chain lengths with a particular focus on endocrine properties” (Archives of Toxicology, 2021)

Assays:
Wistar rats [1] = test: Higher-tier studies taken together (OECD TG 408, 414, 421/422, 443): NOAEL
Description: All in vivo studies were conducted as oral gavage studies, selecting the oral route as most appropriate route of administration to reflect the worst-case exposure scenario. […] The OECD TG 443 included mating of first generation (F1) offspring to produce a second generation (F2), and the DIT and DNT cohorts.

in vivo = details: for concentration at 1 h / Tmax / AUC(0-t) / Cmax: Wistar, rat, serum; for concentration at 1 h: oral; for Tmax / AUC(0-t) / Cmax: po; for AUC(0-t) / Cmax / AUC0-1 h/AUC0–t / C1h/Cmax / Clast / tlast: parent compound
Description: These studies were conducted similarly to OECD TG 417 applying 500 and 1000 mg/kg body weight (bw) test item via oral gavage to 10 males and 10 females per dose group. Focus of the toxicokinetic evaluation was on the measurement of the serum concentrations of the parent compounds and their (common) major metabolite p-hydroxybenzoic acid by […] in order to assess the systemic uptake and elimination of the parent compounds and this major metabolite [see also ECHA ([2017a])]. The limit of quantification was determined as 10 ng/mL for all parabens, and as 130 ng/mL for p-hydroxybenzoic acid. […] On account of these major aims, investigations of the faeces and urine were not included in the toxicokinetics screening studies.

Wistar rats [2] = test: 90-day repeated dose oral toxicity study (OECD TG 408); type: in vivo, rat; details: for NOAEL, 90-day repeated-dose toxicity: OECD 408 v 2018, oral gavage
Description: Healthy and specific pathogen-free male and female (non-pregnant and nulliparous) Wistar Crl: WI(Han) rats were obtained from Charles River Laboratories (Germany). […] Upon arrival at BSL BIOSERVICE, the animals underwent an acclimatisation period of at least 5 days, and they were approximately 15–16 weeks old at the onset of the treatment period.

CCCOC(=O)c1ccc(O)cc1 [Propyl paraben, Propyl 4-hydroxybenzoate]
NOAEL, repeated-dose toxicity and DART, all higher-tier studies (Wistar rats [1]; limit dose, oral gavage): 1000 mg/kg bw/day
NOAEL: Accessory sex organs HP (Wistar rats [1]; over all higher-tier studies): 1000 / 1000 mg/kg bw/day
NOAEL: Adrenals HP (Wistar rats [1]; over all higher-tier studies): 1000 / 1000 mg/kg bw/day
NOAEL: Adrenals weight (Wistar rats [1]; over all higher-tier studies): 1000 / 1000 mg/kg bw/day
NOAEL: Age at balano-preputial separation (Wistar rats [1]; over all higher-tier studies): 1000 / 1000 mg/kg bw/day
NOAEL: Age at vaginal opening (Wistar rats [1]; over all higher-tier studies): 1000 / 1000 mg/kg bw/day
NOAEL: Anogenital distance (Wistar rats [1]; over all higher-tier studies): 1000 / 1000 mg/kg bw/day
NOAEL: Auditory startle (Wistar rats [1]; over all higher-tier studies): 1000 / 1000 mg/kg bw/day
NOAEL: Brain HP (Wistar rats [1]; over all higher-tier studies): 1000 / 1000 mg/kg bw/day
NOAEL: Brain morphometric evaluation (Wistar rats [1]; over all higher-tier studies): 1000 / 1000 mg/kg bw/day
NOAEL: Brain weight (Wistar rats [1]; over all higher-tier studies): 1000 / 1000 mg/kg bw/day
NOAEL: Cervix HP (Wistar rats [1]; over all higher-tier studies): 1000 / 1000 mg/kg bw/day
NOAEL: Coagulating gland HP (Wistar rats [1]; over all higher-tier studies): 1000 / 1000 mg/kg bw/day
NOAEL: Coagulating gland weight (Wistar rats [1]; over all higher-tier studies): 1000 / 1000 mg/kg bw/day
NOAEL: Colloid area (thyroid HP) (Wistar rats [1]; over all higher-tier studies): 1000 / 1000 mg/kg bw/day
NOAEL: Dystocia (Wistar rats [1]; over all higher-tier studies): 1000 / 1000 mg/kg bw/day
NOAEL: Epididymis HP (Wistar rats [1]; over all higher-tier studies): 1000 / 1000 mg/kg bw/day
NOAEL: Epididymis weight (Wistar rats [1]; over all higher-tier studies): 1000 / 1000 mg/kg bw/day
NOAEL: Fertility (Wistar rats [1]; over all higher-tier studies): 1000 / 1000 mg/kg bw/day
NOAEL: Foetal development (Wistar rats [1]; over all higher-tier studies): 1000 / 1000 mg/kg bw/day
NOAEL: Functional observation battery (Wistar rats [1]; over all higher-tier studies): 1000 / 1000 mg/kg bw/day
NOAEL: Genital abnormalities (Wistar rats [1]; over all higher-tier studies): 1000 / 1000 mg/kg bw/day
NOAEL: Gestation length (Wistar rats [1]; over all higher-tier studies): 1000 / 1000 mg/kg bw/day
NOAEL: Litter / pup weight (Wistar rats [1]; over all higher-tier studies): 1000 / 1000 mg/kg bw/day
NOAEL: Litter size (Wistar rats [1]; over all higher-tier studies): 1000 / 1000 mg/kg bw/day
NOAEL: Litter viability (Wistar rats [1]; over all higher-tier studies): 1000 / 1000 mg/kg bw/day
NOAEL: Liver weight (Wistar rats [1]; over all higher-tier studies): 1000 / 1000 mg/kg bw/day
NOAEL: Mammary gland HP; females (Wistar rats [1]; over all higher-tier studies): 1000 / 1000 mg/kg bw/day
NOAEL: Mammary gland HP; males (Wistar rats [1]; over all higher-tier studies): 1000 / 1000 mg/kg bw/day
NOAEL: Motor activity (Wistar rats [1]; over all higher-tier studies): 1000 / 1000 mg/kg bw/day
NOAEL: Nipple development (Wistar rats [1]; over all higher-tier studies): 1000 / 1000 mg/kg bw/day
NOAEL: No. of implantations, corpora lutea (Wistar rats [1]; over all higher-tier studies): 1000 / 1000 mg/kg bw/day
NOAEL: No. of live births (Wistar rats [1]; over all higher-tier studies): 1000 / 1000 mg/kg bw/day
NOAEL: No. of ovarian follicles (Wistar rats [1]; over all higher-tier studies): 1000 / 1000 mg/kg bw/day
NOAEL: Oestrus cyclicity (Wistar rats [1]; over all higher-tier studies): 1000 / 1000 mg/kg bw/day
NOAEL: Offspring: learning & memory (Wistar rats [1]; over all higher-tier studies): 1000 / 1000 mg/kg bw/day
NOAEL: Ovary HP (Wistar rats [1]; over all higher-tier studies): 1000 / 1000 mg/kg bw/day
NOAEL: Ovary weight (Wistar rats [1]; over all higher-tier studies): 1000 / 1000 mg/kg bw/day
NOAEL: Oviduct HP (Wistar rats [1]; over all higher-tier studies): 1000 / 1000 mg/kg bw/day
NOAEL: Pituitary HP (Wistar rats [1]; over all higher-tier studies): 1000 / 1000 mg/kg bw/day
NOAEL: Pituitary weight (Wistar rats [1]; over all higher-tier studies): 1000 / 1000 mg/kg bw/day
NOAEL: Postimplantation loss (Wistar rats [1]; over all higher-tier studies): 1000 / 1000 mg/kg bw/day
NOAEL: Pre-implantation loss (Wistar rats [1]; over all higher-tier studies): 1000 / 1000 mg/kg bw/day
NOAEL: Presence of anomalies (Wistar rats [1]; over all higher-tier studies): 1000 / 1000 mg/kg bw/day
NOAEL: Prostate HP (Wistar rats [1]; over all higher-tier studies): 1000 / 1000 mg/kg bw/day
NOAEL: Prostate weight (Wistar rats [1]; over all higher-tier studies): 1000 / 1000 mg/kg bw/day
NOAEL: Pup development (Wistar rats [1]; over all higher-tier studies): 1000 / 1000 mg/kg bw/day
NOAEL: Reproduction (Wistar rats [1]; over all higher-tier studies): 1000 / 1000 mg/kg bw/day
NOAEL: Seminal vesicles HP (Wistar rats [1]; over all higher-tier studies): 1000 / 1000 mg/kg bw/day
NOAEL: Seminal vesicles weight (Wistar rats [1]; over all higher-tier studies): 1000 / 1000 mg/kg bw/day
NOAEL: Sperm morphology (Wistar rats [1]; over all higher-tier studies): 1000 / 1000 mg/kg bw/day
NOAEL: Sperm motility (Wistar rats [1]; over all higher-tier studies): 1000 / 1000 mg/kg bw/day
NOAEL: Sperm numbers (Wistar rats [1]; over all higher-tier studies): 1000 / 1000 mg/kg bw/day
NOAEL: Testis HP (Wistar rats [1]; over all higher-tier studies): 1000 / 1000 mg/kg bw/day
NOAEL: Testis weight (Wistar rats [1]; over all higher-tier studies): 1000 / 1000 mg/kg bw/day
NOAEL: Thyroid HP (Wistar rats [1]; over all higher-tier studies): 1000 / 1000 mg/kg bw/day
NOAEL: Thyroid stimulating hormone level (Wistar rats [1]; over all higher-tier studies): 1000 / 1000 mg/kg bw/day
NOAEL: Thyroid weight (Wistar rats [1]; over all higher-tier studies): 1000 / 1000 mg/kg bw/day
NOAEL: Time to mating (Wistar rats [1]; over all higher-tier studies): 1000 / 1000 mg/kg bw/day
NOAEL: Triiodothyronine / thyroxine level (Wistar rats [1]; over all higher-tier studies): 1000 / 1000 mg/kg bw/day
NOAEL: Uterus HP (with cervix) (Wistar rats [1]; over all higher-tier studies): 1000 / 1000 mg/kg bw/day
NOAEL: Uterus weight (with cervix) (Wistar rats [1]; over all higher-tier studies): 1000 / 1000 mg/kg bw/day
NOAEL: Vagina HP (Wistar rats [1]; over all higher-tier studies): 1000 / 1000 mg/kg bw/day
NOAEL: Vaginal smears (Wistar rats [1]; over all higher-tier studies): 1000 / 1000 mg/kg bw/day
concentration at 1 h (in vivo; female, 500 mg/kg): 68 ng/mL
concentration at 1 h (in vivo; female, 1000 mg/kg): 20.2 ng/mL
Tmax (in vivo; female, 500 mg/kg): 15 min
AUC(0-t) (in vivo; female, 500 mg/kg, AUC0-1 h): 291 ng·h/mL
AUC(0-t) (in vivo; female, 500 mg/kg, AUC0–t): 1120 ng·h/mL
Cmax (in vivo; female, 500 mg/kg): 1390 ng/mL
Tmax (in vivo; female, 1000 mg/kg): 10.2 min
AUC(0-t) (in vivo; female, 1000 mg/kg, AUC0-1 h): 156 ng·h/mL
AUC(0-t) (in vivo; female, 1000 mg/kg, AUC0–t): 317 ng·h/mL
Cmax (in vivo; female, 1000 mg/kg): 940 ng/mL
concentration at 1 h (in vivo; male, 500 mg/kg): 23 ng/mL
concentration at 1 h (in vivo; male, 1000 mg/kg): 62.3 ng/mL
Tmax (in vivo; male, 500 mg/kg): 10.2 min
AUC(0-t) (in vivo; male, 500 mg/kg, AUC0-1 h): 94.9 ng·h/mL
AUC(0-t) (in vivo; male, 500 mg/kg, AUC0–t): 150 ng·h/mL
Cmax (in vivo; male, 500 mg/kg): 345 ng/mL
Tmax (in vivo; male, 1000 mg/kg): 10.2 min
AUC(0-t) (in vivo; male, 1000 mg/kg, AUC0-1 h): 175 ng·h/mL
AUC(0-t) (in vivo; male, 1000 mg/kg, AUC0–t): 380 ng·h/mL
Cmax (in vivo; male, 1000 mg/kg): 735 ng/mL
AUC0-1 h/AUC0–t (in vivo; 500 mg/kg, female): 26%
C1h/Cmax (in vivo; 500 mg/kg, female): 4.9%
Clast (in vivo; 500 mg/kg, female): 136 ng/mL
tlast (in vivo; 500 mg/kg, female): 8.0 h
AUC0-1 h/AUC0–t (in vivo; 500 mg/kg, male): 63%
C1h/Cmax (in vivo; 500 mg/kg, male): 6.7%
Clast (in vivo; 500 mg/kg, male): 13.6 ng/mL
tlast (in vivo; 500 mg/kg, male): 4.0 h
AUC0-1 h/AUC0–t (in vivo; 1000 mg/kg, female): 49%
C1h/Cmax (in vivo; 1000 mg/kg, female): 2.1%
Clast (in vivo; 1000 mg/kg, female): 11.6 ng/mL
tlast (in vivo; 1000 mg/kg, female): 8.0 h
AUC0-1 h/AUC0–t (in vivo; 1000 mg/kg, male): 46%
C1h/Cmax (in vivo; 1000 mg/kg, male): 8.5%
Clast (in vivo; 1000 mg/kg, male): 14.3 ng/mL
tlast (in vivo; 1000 mg/kg, male): 8.0 h
NOAEL, 90-day repeated-dose toxicity (Wistar rats [2]): NOAEL: 1000 (OECD 408; v 2018) mg/kg body weight/day
NOAEL, 90-day repeated-dose toxicity (Wistar rats [2]; listed as propyl paraben): 1000 mg/kg body weight/day
Accessory sex organs HP (Wistar rats [2]; P0): NAE / NAE
Adrenals HP (Wistar rats [2]; P0): NAE / NAE
Adrenals weight (Wistar rats [2]; P0): NAE / NAE
Brain weight (Wistar rats [2]; P0): NAE / NAE
Cervix HP (Wistar rats [2]; P0): NAE / NAE
Coagulating gland HP (Wistar rats [2]; P0): NAE / NAE
Coagulating gland weight (Wistar rats [2]; P0): NAE / NAE
Epididymis HP (Wistar rats [2]; P0): NAE / NAE
Epididymis weight (Wistar rats [2]; P0): NAE / NAE
Liver weight (Wistar rats [2]; P0): NAE / NAE
Mammary gland HP; females (Wistar rats [2]; P0): NAE / NAE
Mammary gland HP; males (Wistar rats [2]; P0): NAE / NAE
Oestrus cyclicity (Wistar rats [2]; P0): NAE / NAE
Ovary HP (Wistar rats [2]; P0): NAE / NAE
Ovary weight (Wistar rats [2]; P0): NAE / NAE
Oviduct HP (Wistar rats [2]; P0): NAE / NAE
Pituitary HP (Wistar rats [2]; P0): NAE / NAE
Pituitary weight (Wistar rats [2]; P0): NAE / NAE
Prostate HP (Wistar rats [2]; P0): NAE / NAE
Prostate weight (Wistar rats [2]; P0): NAE / NAE
Seminal vesicles HP (Wistar rats [2]; P0): NAE / NAE
Seminal vesicles weight (Wistar rats [2]; P0): NAE / NAE
Testis HP (Wistar rats [2]; P0): NAE / NAE
Testis weight (Wistar rats [2]; P0): NAE / NAE
Thyroid HP (Wistar rats [2]; P0): NAE / NAE
Thyroid stimulating hormone level (Wistar rats [2]; P0): NAE / NAE
Thyroid weight (Wistar rats [2]; P0): NAE / NAE
Triiodothyronine / thyroxine level (Wistar rats [2]; P0): NAE / NAE
Uterus HP (with cervix) (Wistar rats [2]; P0): NAE / NAE
Uterus weight (with cervix) (Wistar rats [2]; P0): NAE / NAE
Vagina HP (Wistar rats [2]; P0): NAE / NAE
Vaginal smears (Wistar rats [2]; P0): NAE / NAE
Signs of systemic toxicity (Wistar rats [2]; sub-chronic (90-day) oral application): did not induce any signs of systemic toxicity
